The text below walks through data of patent publication US20030134859A1 (SANKYO COMPANY, LIMITED, priority 2000, published 2003).

The test system of the test is Mouse preadipocyte strain 3T3-L1. Kind of test: Inhibition of differentiation as an indication of acetic acid uptake. In kind it is cell-based. Particulars: control (0.01% dimethylsulfoxide) = 100%; for activity at 0.1 µM: Mus musculus, 3T3-L1, 0.1 μM test substance, read-out: Rate of Uptake (%) of [2-14C] acetic acid. The method, boiled down: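 Differentiation is indexed by 1 hr [2-14C]acetic acid incorporation, measured by scintillation counting and given as uptake relative to 0.01% DMSO control (100%). Mouse 3T3-L1 preadipocytes, pre-grown 10 days, received 0.1 μM test substance throughout a 4-day insulin/IBMX/dexamethasone induction, followed by 2 days' maintenance culture.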

On to `Cc1ccc(S(=O)(=O)Nc2ccc(NC(=O)c3cc([N+](=O)[O-])ccc3Cl)cc2)cc1` [Example 116, N-[4-(4-Toluenesulfonylamino)phenyl]-(2-chloro-5-nitrophenyl)carboxamide], for which the activity at 0.1 µM came out at 95.1%.
Consider `CC(=O)Nc1ccc(NC(=O)c2cc([N+](=O)[O-])ccc2Cl)cc1` [Example 117, N-(4-Acetylaminophenyl)-(2-chloro-5-nitrophenyl)carboxamide], for which the activity at 0.1 µM was 87%.
On the same count and under the same terms, next, `O=C(Nc1ccc(NC(=O)c2cc([N+](=O)[O-])ccc2Cl)cc1)c1ccccc1` [Example 119, N-(4-Benzoylaminophenyl)-(2-chloro-5-nitrophenyl)carboxamide]: 65.7%; `O=C(Nc1ccc(S(=O)(=O)Nc2cccnc2)cc1)c1cc([N+](=O)[O-])ccc1Cl` [Example 178]: 66.2%.
As to “N-[4-(Pyrrolidinylsulfonyl)phenyl]-(2-chloro-5-nitrophenyl)carboxamide [Example 152]”, the “Rate of Uptake (%) of [2-14C] acetic acid” value (0.1 μM test substance) stood at 69.6%.
